In patent EP2135864A1, “5-(4-methanesulfonyl-phenyl)-thiazole derivatives for the treatment of acute and chronic inflammatory diseases” (FAES FARMA, S.A., priority 2008, dated 2009):

Key:
Format in all cases: cell-based, human
IL-8 = IL-8 production by PBMC from healthy volunteers, CBA; details: 24 hours, mean ± standard error, n=13
Experimental: (§1) CBA protocol was followed according to the manufacturer's instructions. The election of microparticles was performed following the summary of Figure 1.
(§2) The acquisition on samples was performed with the BD FACS Array Bioanalyser System (FACSArray, Becton Dickinson, San José, CA, USA) and the analysis of the results was completed with the software FCAP Array (Becton Dickinson) in a PC computer.
(§3) Briefly, the experimental protocol consisted of a plate pre-washing out with Wash Buffer. After decantation, the mixture of capture microparticles was re-suspended in the vortex. Standards and samples were added in the adequate dilution. After permanent stirring incubation during 1 h, the PE detection reagent was added and incubated again during 2h at room temperature. After a washing-out, the acquisition was performed in the flow cytometer. Table 3. -Kit CBA Human Soluble Protein Multiplex Flex Set System.
The effect of compound 12 on the IL-8 production by the PBMC from healthy volunteers was further investigated, both in the presence and absence of LPS stimuli and monoclonal antibodies anti-CD3 and anti-CD28. PBMC (5 x 10^4 cells/well) from 13 healthy volunteers were cultured in duplicate in 200 µl of complete medium supplemented with the highest solvent concentration (10^-6 M), and 10^-6 M, 10^-7 M and 10^-8 M of compound 12, in the presence and absence of either LPS (10 µg/ml) or anti-CD3 (12.5 ng/ml) + anti-CD28 (1/3x10^5), during 24 hours. Culture supernatants were frozen at -20°C and IL-8 concentration was quantified by BD FACS Array Bioanalyser by using CBA Flex Set, specific to determine the IL-8 concentration, following the manufacturer instructions.

CD62L [1] = assay: Shedding of CD62L in lymphocytes of PBMC, flow cytometry; details: lymphocytes of PBMC from healthy volunteers, mean ± standard error, n=10, vehicle 112.68±13.57
Experimental: Direct immuno-fluorescence techniques of one colour with monoclonal antibodies phycoerythrin-labeled (PE) was used. PE is a fluorescent substance excitable with a 488 nm laser, which emits at 570 nm, and it is detectable and easily distinguishable by a flow cytometer. By using the antibody described in Table 1, a direct labelling was performed: PBMC labelling: the process consisted in a labelling using 96 well V bottom plates. In each well, 5 x 10^4 cells are located, and afterwards centrifugated at 400 xg during 5 minutes. After washing-out, cells are re-suspended and 5 µl of the corresponding monoclonal antibody are added. Cells are again re-suspended and the plate is incubated in darkness, during 20 minutes, at 4°C. Subsequently, 150 µl PBS are added and two wash-outs are performed. Finally, it is re-suspended in 150 µl PBS and collected in a cytometer tube, adding PBS up to a final volume of 0.3 ml. For the counting, a FACSCalibur flow cytometer equipped with argon laser tuned at 488 nm was used in order to induce phycoerythrin fluorescence. The equipment, apart from the fluorescence channels, also provided information about the size (FSC) and cellular complexity (SSC). […]
Table 14. -Mean fluorescence intensity of surface CD62L expression in lymphocytes. p values correspond to data with respect to the vehicle for each experimental condition.

IL-10 = IL-10 production by PBMC from patients with rheumatoid arthritis, CBA; details: 24 hours, mean ± standard error, n=8
Experimental: as §1, §2, §3
On the other hand, PBMC (5 x 10^4 cells per well) from 8 patients with rheumatoid arthritis were cultured in duplicate in 200 µl of complete medium supplemented with the highest solvent concentration (10^-6 M), and 10^-6 M, 10^-7 M and 10^-8 M of compound 12 in the presence and absence of either LPS (10 µg/ml) or anti-CD3 (12.5 ng/ml), + anti-CD28 (1/3x10^5), during 24 hours. Culture supernatants were frozen at -20°C and IL-10 concentration was assayed by BD FACS Array Bioanalyser by using CBA Flex Set, specific to determine IL-10 concentration, following the manufacturer instructions.

CD62L [2] = assay: Shedding of CD62L in monocytes of PBMC, flow cytometry; details: monocytes of PBMC from healthy volunteers, mean ± standard error, n=10, vehicle 65.34±8.06

For Cc1nc(OC2CCCC2)c(-c2ccc(S(C)(=O)=O)cc2)s1 [compound 12, 4-cyclopentyloxy-5-(4-methylsulfonyl-phenyl)-2-methylthiazole], the “IL-8 production by PMBC from healthy volunteers” value (“IL-8 production by PMBC” for short) (IL-8; LPS (10µg/ml), 10^-6 M, vehicle 173877.36±8474.49, p 0.807) was 168467.15±9656.96 (0.807) pg/mL, the “IL-8 production by PMBC” value (IL-8; LPS (10µg/ml), 10^-7 M, vehicle 173877.36±8474.49, p 0.249) was 162075.59±10258.41 (0.249) pg/mL and the “IL-8 production by PMBC” value (IL-8; LPS (10µg/ml), 10^-8 M, vehicle 173877.36±8474.49, p 0.861) was 169609.11±9060.90 (0.861) pg/mL. For the same molecule, the “IL-8 production by PMBC” value (IL-8; anti-CD3 (12.5 ng/ml) + anti-CD28 (1/3x10^5), 10^-6 M, vehicle 107008.56±8351.21, p 0.311) was 99779.72±20000 (0.311) pg/mL, the “IL-8 production by PMBC” value (IL-8; anti-CD3 (12.5 ng/ml) + anti-CD28 (1/3x10^5), 10^-7 M, vehicle 107008.56±8351.21, p 0.055) was 97968.61±10220.21 (0.055) pg/mL and the “IL-8 production by PMBC” value (IL-8; anti-CD3 (12.5 ng/ml) + anti-CD28 (1/3x10^5), 10^-8 M, vehicle 107008.56±8351.21, p 0.028) was 92989.29±8463.47 (0.028) pg/mL. The “IL-8 production by PMBC” value (IL-8; medium, 10^-6 M, vehicle 72814.17±10647.16, p 0.016) was 45634.31±6311.13 (0.016) pg/mL, the “IL-8 production by PMBC” value (IL-8; medium, 10^-7 M, vehicle 72814.17±10647.16, p 0.006) was 53732.66±7952.75 (0.006) pg/mL and the “IL-8 production by PMBC” value (IL-8; medium, 10^-8 M, vehicle 72814.17±10647.16, p 0.087) was 57773.60±6667.57 (0.087) pg/mL. For the same molecule, the “Mean fluorescence intensity of surface CD62L expression in lymphocytes (MFI)” value (CD62L [1]; 10^-6 M, p 0.47 as printed) was 90.01±8.93 (0.47), the “Mean fluorescence intensity of surface CD62L expression in lymphocytes (MFI)” value (CD62L [1]; 10^-7 M, p 0.333) was 116.90±11.02 (0.333) and the “IL-10 production in PMBC from patients with rheumatoid arthritis” value (from here on “IL-10 production in PMBC from patients”) (IL-10; LPS (10µg/ml), 10^-6 M, vehicle 2388.64±300.00, p 0.069) was 2787.12±416.91 (0.069) pg/mL. The “IL-10 production in PMBC from patients” value (IL-10; LPS (10µg/ml), 10^-7 M, vehicle 2388.64±300.00, p 0.327) was 2597.85±513.19 (0.327) pg/mL, the “IL-10 production in PMBC from patients” value (IL-10; LPS (10µg/ml), 10^-8 M, vehicle 2388.64±300.00, p 0.025) was 3000.00±400.00 (0.025) pg/mL and the “IL-10 production in PMBC from patients” value (IL-10; anti-CD3 (12.5 ng/ml) + anti-CD28 (1/3x10^5), 10^-6 M, vehicle 836.39±189.09, p 0.484) was 976.96±187.99 (0.484) pg/mL. The “IL-10 production in PMBC from patients” value (IL-10; anti-CD3 (12.5 ng/ml) + anti-CD28 (1/3x10^5), 10^-7 M, vehicle 836.39±189.09, p 1.000) was 805.41±141.23 (1.000) pg/mL, the “IL-10 production in PMBC from patients” value (IL-10; anti-CD3 (12.5 ng/ml) + anti-CD28 (1/3x10^5), 10^-8 M, vehicle 836.39±189.09, p 0.674) was 872.06±150.87 (0.674) pg/mL and the “IL-10 production in PMBC from patients” value (IL-10; medium, 10^-6 M, vehicle 452.69±107.47, p 0.674) was 682.50±113.65 (0.674) pg/mL. The “IL-10 production in PMBC from patients” value (IL-10; medium, 10^-7 M, vehicle 452.69±107.47, p 0.401) was 798.92±144.46 (0.401) pg/mL, the “IL-10 production in PMBC from patients” value (IL-10; medium, 10^-8 M, vehicle 452.69±107.47, p 0.263) was 468.14±65.80 (0.263) pg/mL and the “Mean fluorescence intensity of surface CD62L expression in monocytes (MFI)” value (CD62L [2]; 10^-6 M, p 0.721) was 63.90±8.52 (0.721). The “Mean fluorescence intensity of surface CD62L expression in monocytes (MFI)” value (CD62L [2]; 10^-7 M, p 0.878) was 72.30±10.21 (0.878).
